One experiment concerns RNase A, 1, and T1. The experiment in a line: Anti-RNase antibodies / Specific Anti-RNase Cocktail with added non-antibody inhibitor. The format is biochemical. The settings on record: for effect on action of Specific Anti-RNase Cocktail against RNase A, 1, and T1: detergent added to cocktail at 0.1% to 1%. The method, then: The activity of an anti-nuclease cocktail is readily determined using radiolabeled RNA or DNA to detect the inhibition of nuclease by anti-nuclease antibodies in the anti-nuclease cocktail. […] Assay buffer, nuclease and an anti-nuclease cocktail are then added to 0.5 ml microfuge tubes. A mixture comprising assay buffer, RNA or DNA and radiolabeled RNA or DNA is added to the microfuge tubes, and the tubes are vortexed and microfuged. After incubation of the tubes at 37° C. for 30 minutes, a portion of the tube contents is removed and placed into gel loading buffer. After mixing, the combination is loaded onto a gel, typically a 8M urea/5% acrylamide gel, which is exposed to film.
Radiolabeled RNA was used to detect the inhibition of RNase A, RNase T1, and RNase 1 by specific antibodies.
The “MIX” was prepared by combining 10× Assay Buffer (0.9 μl/rxn), 5 mg/ml yeast RNA (0.4 μl/rxn), ^32P-labeled β actin RNA (1 μl/rxn), and nuclease-free H2O (6.7 μl/rxn), for a total of 9 μl/rxn.
1× Assay Buffer was added first. Then Specific RNase Cocktail, Specific Anti-RNase Cocktail and MIX were added. The tubes are vortexed and microfuged, then incubated at 37° C. for 30 min (Table 9).
At the end of the incubation time, 10 μl of solution was removed from the tube and placed into 10 μl Gel Loading Buffer II. The combination was mixed thoroughly and loaded onto a 8M urea/5% acrylamide gel. The gel was exposed to film for 30 min. at −80° C. with an intensifying screen.

The target in a further experiment is nuclease (Homo sapiens, UniProt P03950). The experiment can be described thus: Ki of Lead 1 and Lead 2 analogs (Tables 1 and 2). In kind it is biochemical. The settings on record: Table 1, Lead 1 Analog List.
A further experiment relates to diluted pancreas lysate. The experiment can be described thus: Intactness of total RNA (RNA LabChip), diluted pancreas lysate. The format is biochemical, mouse. How it is done:
A total of 100 pg/ul e. […].
Pancreatic lysate (0.1 mg/ml) was diluted 1:20,000 in 24 mM Hepes, pH 7.2, 50 mM NaCl, 1 mM MgCl2 and pre-incubated with either 1% SDS or 6.25 mM OVA for 30 s prior to the addition of 2 ug mouse liver total RNA. Reactions were incubated at 25 C for an additional 4 min, quenched, and analyzed on an RNA LabChip.
Mouse pancreatic tissue (5 mg) was disrupted in 50 ul of 24 mM Hepes, pH 7.2, 50 mM NaCl, 1 mM MgCl2. The diluted lysate (1:20,000) was pre-incubated with 50 uM Benzopurpurin B (BpB) for 30 sec and then added to 100 ng/ul mouse liver total RNA (Ambion) and incubated at 23 C for an additional 4 min. Samples were quenched in a guanidinium lysis buffer, and the RNA purified via MEGAclear™ MAG-96 and eluted with 20 ul nuclease-free water. […] These experiments were conducted in the same fashion except that 100 uM BpB was employed. The sample (1 ul) was analyzed by 2100 BioAnalyzer software (Agilent) after separation on an RNA LabChip.
Mouse pancreatic tissue (5 mg) was dounced in 50 ul of 24 mM Hepes, pH 7.2, 50 mM NaCl, 1 mM MgCl2. A diluted lysate (1:20,000) was pre-incubated with 100 uM BpB or the analog Benzopurpurin 4B (Bp4B) for 30 sec and then added to 100 ng/ul mouse liver total RNA (Ambion) and incubated at 23 C for an additional 4 min. Samples were quenched in a guanidinium lysis buffer, and the RNA purified via MEGAclear™ MAG-96 and eluted with 20 ul nuclease-free water. The sample (1 ul) was analyzed by 2100 BioAnalyzer software (Agilent) after separation on an RNA LabChip.
Pancreatic tissue (5 mg) was dounced in 50 ul of 24 mM Hepes, pH 7.2, 50 mM NaCl, 1 mM MgCl2. The lysate was diluted (1:20,000) and then pre-incubated with 200 uM of 467929. […] All samples were pre-incubated for 30 sec before being added to 100 ng/ul mouse liver total RNA (Ambion) and incubated at 23C for an additional 4 min. The RNA was then immediately purified via MEGAclear™ MAG-96 and eluted with 20 ul nuclease-free water. The recovered RNA (1 ul) was analyzed by 2100 BioAnalyzer software after separation on an RNA LabChip.

The target of a further experiment is DNase I (Bos taurus, UniProt P00639). The experiment can be described thus: Lambda DNA digestion assay with DNase I. The format is biochemical. The settings on record: 0.1 U DNase, inhibitor at 5×Ki. From the text:
One application for small molecule RNase inhibitors is as an RNA control agent during enzymatic manipulation of solutions containing RNA. These reactions include in vitro transcription, in vitro translation, DNase digestion, and reverse transcription, among others. […] […] […] All reactions were quenched with EDTA and the cleavage products resolved on a 1% agarose gel.
As a result, compounds such as #467929, 140553, and 180582 may have utility in curbing the activity of residual RNases that may carry over from RNA isolation methods during DNase treatments of the RNA.

A further experiment addresses MMLV RT RNase H (Moloney murine leukemia virus, UniProt P03355). The experiment in a line: RT-based RNase H cleavage of RNA:DNA hybrid. In kind it is biochemical. The method, then:
As described above, Chembridge compound #467929 offered protection from several RNA-specific endonucleolytic activities. […] A 20-mer DNA oligonucleotide was asymmetrically annealed to a 1500 base synthetic RNA to create an RNA:DNA duplex substrate for RNase H. Reactions were initiated with 10 U of MMLV RT in 1× RT buffer (50 mM TrisCl pH 8.3, 75 mM KC, 3 mM MgCl2, 5 mM DTT) containing 500 ng/ul RNA:DNA hybrid. All reactions contained 5% DMSO either with or without the small molecule RNase inhibitor. Samples were incubated for 5 min at 37 C, and quenched with EDTA. Products were resolved on an RNA LabChip. Cleavage products were observed as two equally represented RNA species of 1000 and 500 bases. Product length and yield were determined using the 2100 BioAnalyzer software (Agilent). Table 18 details the level of inhibition of MMLV RT RNase H that is observed as a function of the concentration of compounds 467929 and 227726.

For experiment [1], the system named is one-step RT-PCR with MMLV-RT and SuperTaq, human CDC-2 mRNA. The experiment can be described thus: One-step qRT-PCR tolerance, human CDC-2. In kind it is biochemical. The method, then: The compatibility of #467929 and 227726 were tested in Ambion's MessageSensor RT-PCR Kit according to the supplier's instructions and using primers/probe designed to amplify a ˜100 nt amplicon from the human CDC-2 mRNA. The reaction conditions were: 20-ul one-step RT-PCR with MMLV-RT (0.4 U/ul final) and SuperTaq (0.04 U/ul final). The cycling conditions were: Stage 1. 42 C for 15 minutes Stage 2. 95 C for 5 min, Stage 3. 95 C-15 sec and 60 C-60 sec where Stage 3 is repeated 40 times. The input template was HeLa-S3 total RNA at either 1 ng or 10 ng/reaction. […] Consequently, these compounds may have utility in controlling any RNA degradation that might occur during the cDNA synthesis step of RT-PCR.

Several values for one entry are separate records, joined by “and”; a condition that tells them apart may be missing. Identical values can stand only once.

DNase I, sequence (P00639 23-282): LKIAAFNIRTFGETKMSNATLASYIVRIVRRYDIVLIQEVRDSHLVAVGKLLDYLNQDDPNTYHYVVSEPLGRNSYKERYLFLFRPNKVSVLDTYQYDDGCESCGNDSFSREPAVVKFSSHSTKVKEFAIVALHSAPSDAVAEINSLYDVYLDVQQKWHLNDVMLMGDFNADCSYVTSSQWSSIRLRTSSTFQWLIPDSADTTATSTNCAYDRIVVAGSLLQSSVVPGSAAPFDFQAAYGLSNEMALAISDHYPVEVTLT
nuclease, sequence (P03950 25-147): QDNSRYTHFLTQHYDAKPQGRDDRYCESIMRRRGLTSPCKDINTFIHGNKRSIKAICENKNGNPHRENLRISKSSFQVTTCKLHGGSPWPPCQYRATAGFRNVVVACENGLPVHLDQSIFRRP

As for `C[C@H](CCC(=O)NCCC[N+](C)(C)CCCS(=O)(=O)[O-])[C@H]1CC[C@H]2[C@@H]3[C@H](O)C[C@@H]4C[C@H](O)CC[C@]4(C)[C@H]3C[C@H](O)[C@]12C` [CHAPS], the “effect on action of Specific Anti-RNase Cocktail against RNase A, 1, and T1” value (from here on “effect on action”) in the experiment on RNase A, 1, and T1 is “strengthened the action of Specific Anti-Rnase Cocktail against RNase A, 1, and T1”.

The compound `O=S(=O)(O)c1ccc(-c2ccc(/N=N/c3c(O)ccc4cc(S(=O)(=O)O)ccc34)cc2)cc1` [D726712] gave a Ki on nuclease of around 350 µM.

With `[Cl-].[Cl-].[Mg+2]` [MgCl2], the “effect of mixing with Specific Anti-RNase Cocktail” value in the experiment with RNase A, 1, and T1 (MgCl2 mixed together with cocktail) is reported as “best”.

On nuclease, `CC(=O)Nc1ccc(N=Nc2c(S(=O)(=O)O)cc3cc(S(=O)(=O)O)cc(NC(C)=O)c3c2O)cc1` [acid violet7, acid violet 7] gave a Ki of 71 µM.

In the case of `O=C(O)CC(O)(CC(=O)O)C(=O)O` [citrate, reference compound], the “protection of total RNA from degradation” value in the experiment on diluted pancreas lysate (50 mm citrate, pancreas lysate 1:20,000, e. coli total rna, room temperature 4 min) was “significant protection”.

Consider `Nc1cccc(C(=O)Nc2ccc3c(O)cc(S(=O)(=O)O)cc3c2)c1` [compound 1743], for which the KI entry on nuclease is recorded as “in-activeat 75uM”.

`Nc1c(OCC(=O)O)ccc2cc(S(=O)(=O)O)ccc12` [compound 16163]: the KI entry at nuclease is “in-activeat 75uM”.

For the compound `O=C(Nc1cc(S(=O)(=O)O)cc2cc(S(=O)(=O)O)cc(O)c12)c1ccccc1` [compound 16169], on nuclease, the KI entry is “in-activeat 75uM”.

`Cc1cc(/N=N/c2ccc(S(=O)(=O)O)c3ccccc23)ccc1O` [compound 45557]: on nuclease, the Ki is above 500 µM.

The compound `Cc1ccccc1/N=N/c1ccc(/N=N/c2c(O)ccc3cc(S(=O)(=O)O)cc(S(=O)(=O)O)c23)c(C)c1` [compound 45601] gave a Ki on nuclease of 122 µM.

The compound `O=C(Nc1ccc(/N=N/c2ccc3cc(S(=O)(=O)O)cc(S(=O)(=O)O)c3c2)cc1)c1ccc(/N=N/c2c(O)ccc3cc(S(=O)(=O)O)cc(S(=O)(=O)O)c23)cc1` [compound 65841] came in with an inhibition constant Ki at nuclease of 5 µM. Compared with the last compound, the Ki is about 24-fold lower.

In the case of `O=S(=O)(O)c1cc(O)c2c(/N=C/c3ccccc3O)cc(S(=O)(=O)O)cc2c1` [compound 88947], the KI result at nuclease is reported as “in-activeat 75uM”.

As to `O=C(O)C1=NN(c2ccccc2)C(=O)\C1=C/C=C/C=C/C1C(=O)N(c2ccccc2)N=C1C(=O)O` (stereo not shown) [compound 102704, 4-[5-(3-carboxy-5-oxo-1-phe-nyl-1,5-dihydro-4H-pyra-zol-4-ylidene)-1,3-penta-dien-1-yl]-5-hy-droxy-1-phenyl-1H-pyra-zole-3-carboxylic acid], on DNase I, the DNase inhibition entry was “modestly inhibitory”.

Regarding `Cc1ccc(C)n1-c1cccc(C(=O)O)c1` [compound 128773, 3-(2,5-dimethyl-1H-pyr-rol-1-yl)benzoic acid], at DNase I, the DNase inhibition result is given as “modestly inhibitory”.

In the case of `O=C(COc1ccc(I)cc1)c1c(O)cc(O)cc1O` [compound 140553, 2-(4-iodo-phenoxy)-1-(2,4,6-tri-hydroxyphenyl)etha-none], the DNase inhibition entry on DNase I is “little or no DNase inhibition”.

In the case of `Cc1ccc(S(=O)(=O)Nc2ccc(Cc3ccc(NS(=O)(=O)c4ccc(C)cc4)c(C(=O)O)c3)cc2C(=O)O)cc1` [compound 180582, 3,3′-methylenebis(6-[4-meth-ylphenylsulfonyl]a-mino)benzoic acid], the DNase inhibition entry on DNase I is reported as “little or no DNase inhibition”.

In the case of `O=C(N/N=C(\c1ccccc1)c1ccncc1)c1ccccc1` [compound 227726, N′-[phenyl(4-pyri-dinyl)meth-ylene]benzohydrazide], the DNase inhibition result on DNase I was “modestly inhibitory”. Moreover, the “% Cleavage” value on MMLV RT RNase H (inhibitor 100 uM) is recorded as 45%; on MMLV RT RNase H (inhibitor 524 uM), 43%; at MMLV RT RNase H (inhibitor 1000 uM) it was 47%. Also, the “concentration tolerated in RT-PCR” value in experiment [1] is “at least 1.3 mM”. For the same compound, the “Cycle Threshold” value in experiment [1] (Input RNA = 1 ng, inhibitor 130 uM) is 26.01 and 26.08; in experiment [1] (Input RNA = 1 ng, inhibitor 655 uM), 26.14 and 26.18; in experiment [1] (Input RNA = 1 ng, inhibitor 1.3 mM), 26.08 and 26.18; in experiment [1] (Input RNA = 10 ng, inhibitor 130 uM), 23.18 and 23.24; in experiment [1] (Input RNA = 10 ng, inhibitor 655 uM), 23.01; in experiment [1] (Input RNA = 10 ng, inhibitor 1.3 mM), 23.02 and 23.04.

For the compound `N#CS.N=C(N)N` [guanidine thiocyanate], the “effect on Specific Anti-RNase Cocktail” value with RNase A, 1, and T1 is recorded as “more inhibitory against different antibodies”.

As to `NCCCCNCCCN` [spermidine], the “effect on anti-RNase A, 1, and T1 activity of Specific Anti-RNase Cocktail” value with RNase A, 1, and T1 (5 mM spermidine mixed with cocktail) is given as 5 Mm spermidine mixed with Specific Anti-RNase Cocktail enhanced anti-RNase.

For NP-40, the “effect on action” value in the experiment with RNase A, 1, and T1 was “strengthened the action of Specific Anti-Rnase Cocktail against RNase A, 1, and T1”.

As to Triton X-100, the “effect on action” value in the experiment on RNase A, 1, and T1 was “strengthened the action of Specific Anti-Rnase Cocktail against RNase A, 1, and T1”.

At nuclease, cefsulodin [reference compound] returned a Ki of 201 µM.

For eriochrome black T [erio-chromeblack T], the affinity at nuclease corresponds to a Ki of 50 µM.

As for “oligovinylsulfonic acid [OVA, reference compound]”, the “protection of RNA from degradation” value with diluted pancreas lysate (6.25 mM OVA, pancreatic lysate 1:20,000, mouse liver total RNA, 25 C 4 min) is listed as “help remedy RNA degradation”.

(Values after patent US7264932B2, “Nuclease inhibitor cocktail” (Applera Corporation, priority 1999, dated 2007).)
